Measurements taken from patent US20110040086A1, “Novel Beta-Lactam Antibiotics, Methods for Their Production, and Their Use” (DRITTE PATENTPORTFOLIO BETEILIGUNGSGESELLSCHAFT MB, priority 2007, published 2011).

Legend:
[1] = test system: Bacillus megaterium SBUG 1152; assay: agar diffusion test (Test System 1, antimicrobial effect); type: cell-based
Method: (§1) Test System 1 (Antimicrobial Effect)
(§2) The test germs Escherichia coli SBUG 1135 and Bacillus megaterium SBUG 1152 are drawn overnight (17 hours at 37° C.) in 5 ml nutrient medium II. The incubation is performed in a shaking incubator (INFORS AG CH 4103, Bottmingen, Switzerland) at a shaking frequency of 180 rpm.
(§3) After 17 h incubation time, Escherichia coli has reached a cell density of ca. 2.4×10^10 cells/ml and Bacillus megaterium a cell density of ca. 2.1×10^8 cells/ml.
(§4) The seeding of bacteria in agar is selected so that, dense, but not confluent individual colonies develop after the incubation.
Bacillus megaterium: 0.1 ml of non-diluted overnight culture (ÜN) in 10 ml nutrient agar corresponds to a cell count of 10^6.
(§5) The inoculated nutrient agar is set in sterile Petri dishes and left standing for a few minutes for drying.
(§6) The test substances are deposited in stepped quantities (10 μg, 50 μg, 100 μg) onto active ingredient carriers (sensi-discs). For this purpose, the test substances are dissolved in methanol or A. dest. according to their solubility. Each inoculated plate is fitted with 3 test sheets.
(§7) After a 20-hour incubation time at 37° C., the zones of inhibition around the individual test sheets could be measured. The diameter of the zone of inhibition is specified in mm.

[2] = test system: B. subtilis AWD 166; assay: agar diffusion test (antimicrobial effect); type: cell-based, Bacillus subtilis
Method: as §4, §5, §6, §7

[3] = test system: Escherichia coli SBUG 1135; assay: agar diffusion test (Test System 1, antimicrobial effect); type: cell-based; parameters: key: r = resistant (no detectable zone of inhibition)
Method: as §1, §2, §3, §4
Escherichia coli: the ÜN is diluted 1:100 with physiological saline solution, of which 0.1 ml is converted into 10 ml nutrient agar. That corresponds to a cell count of 10^6.
as §5, §6, §7

[4] = test system: Enterococcus faecalis 769; assay: agar diffusion test (Test System II, multi-resistant germs); type: cell-based; parameters: key: r = resistant (no detectable zone of inhibition)
Method: as §6
(§8) Test System II (Effect Against Multi-Resistant Germs)
(§9) For this purpose, bacteria is cultivated on Müller-Hinton-Agar II plates.
(§10) With 1-1.5 ml physiological saline solution, a bacteria suspension of McFarland 0.5 (corresponds to a bacteria density of 150×10^6 germs) is produced. Then, with a sterile glass rod, a small drop of bacteria suspension is placed on the Müller-Hinton-Agar plate and coated in three layers (vertical, horizontal, and transverse). Thereafter, the sensi-discs with the novel semi-synthetic test substances are placed on top. The fitted plates are incubated for 18-20 hours at 37° C. After incubation, the diameters of the zones of inhibition are read as a measure for the antimicrobial activity of the novel semi-synthetic test substances.

[5] = test system: Staphylococcus aureus 315; assay: as above; type: cell-based; parameters: key: r = resistant (no detectable zone of inhibition)
Method: as §6, §8, §9, §10

[6] = test system: E. faecalis 945; assay: as above; type: cell-based, Enterococcus faecalis; parameters: key: r = resistant (no detectable zone of inhibition)
Method: as §6, §8, §9, §10

[7] = test system: S. aureus 33490; assay: as above; type: cell-based, Staphylococcus aureus; parameters: key: r = resistant (no detectable zone of inhibition)
Method: as §6, §8, §9, §10

[8] = test system: S. aureus 34289; assay: as above; type: cell-based, Staphylococcus aureus; parameters: key: r = resistant (no detectable zone of inhibition)
Method: as §6, §8, §9, §10

[9] = test system: S. aureus 36881; assay: as above; type: cell-based, Staphylococcus aureus; parameters: key: r = resistant (no detectable zone of inhibition)
Method: as §6, §8, §9, §10

[10] = test system: S. aureus 39105; assay: as above; type: cell-based, Staphylococcus aureus; parameters: key: r = resistant (no detectable zone of inhibition)
Method: as §6, §8, §9, §10

[11] = test system: S. aureus 520; assay: as above; type: cell-based, Staphylococcus aureus; parameters: key: r = resistant (no detectable zone of inhibition)
Method: as §6, §8, §9, §10

[12] = test system: S. aureus 526; assay: as above; type: cell-based, Staphylococcus aureus; parameters: key: r = resistant (no detectable zone of inhibition)
Method: as §6, §8, §9, §10

[13] = test system: S. aureus North Germany strain; assay: as above; type: cell-based, Staphylococcus aureus; parameters: key: r = resistant (no detectable zone of inhibition)
Method: as §6, §8, §9, §10

[14] = test system: S. aureus 38418; assay: as above; type: cell-based, Staphylococcus aureus
Method: as §6, §8, §9, §10

[15] = test system: S. aureus ATCC 6538; assay: as above; type: cell-based, Staphylococcus aureus
Method: as §6, §8, §9, §10

[16] = test system: S. epidermidis 1068; assay: as above; type: cell-based, Staphylococcus epidermidis; parameters: key: r = resistant (no detectable zone of inhibition)
Method: as §6, §8, §9, §10

[17] = test system: S. epidermidis 1071; assay: as above; type: cell-based, Staphylococcus epidermidis; parameters: key: r = resistant (no detectable zone of inhibition)
Method: as §6, §8, §9, §10

[18] = test system: S. epidermidis 563; assay: as above; type: cell-based, Staphylococcus epidermidis; parameters: key: r = resistant (no detectable zone of inhibition)
Method: as §6, §8, §9, §10

[19] = test system: S. epidermidis 847; assay: as above; type: cell-based, Staphylococcus epidermidis; parameters: key: r = resistant (no detectable zone of inhibition)
Method: as §6, §8, §9, §10

[20] = test system: S. epidermidis 125; assay: as above; type: cell-based, Staphylococcus epidermidis
Method: as §6, §8, §9, §10

SMILES: COC(=O)C1=C(NC(C(=O)NC2C(=O)N3C(C(=O)O)=C(C)CSC23)c2ccccc2)C(=O)C=CC1=O (stereo not drawn) [1g, 7-[2-(2-methoxycarbonyl-3,6-dioxocyclohexa-1,4-dienylamino)-2-phenyl-acetylamino]-desacetoxycephalosporanic acid]
- Diameter of zone of inhibition ([1]; Quantity n 0.029): 20 mm
- Diameter of zone of inhibition ([1]; Quantity n 0.14): 30 mm
- Diameter of zone of inhibition ([1]; Quantity n 0.29): 34 mm
- Diameter of zone of inhibition ([2]; Quantity n 0.029): 24 mm
- Diameter of zone of inhibition ([2]; Quantity n 0.14): 30 mm
- Diameter of zone of inhibition ([2]; Quantity n 0.29): 32 mm
- Diameter of zone of inhibition ([3]; Quantity n 0.029): r
- Diameter of zone of inhibition ([3]; Quantity n 0.14): 16 mm
- Diameter of zone of inhibition ([3]; Quantity n 0.29): 22 mm
- Diameter of zone of inhibition ([4]; Quantity n 0.029): r
- Diameter of zone of inhibition ([4]; Quantity n 0.14): r
- Diameter of zone of inhibition ([4]; Quantity n 0.29): r
- Diameter of zone of inhibition ([5]; Quantity n 0.029): r
- Diameter of zone of inhibition ([5]; Quantity n 0.14): r
- Diameter of zone of inhibition ([5]; Quantity n 0.29): 12 mm
- Diameter of zone of inhibition ([6]; Quantity n 0.029): r
- Diameter of zone of inhibition ([6]; Quantity n 0.14): r
- Diameter of zone of inhibition ([6]; Quantity n 0.29): r
- Diameter of zone of inhibition ([7]; Quantity n [μmol] 0.029): r
- Diameter of zone of inhibition ([7]; Quantity n [μmol] 0.14): 20 mm
- Diameter of zone of inhibition ([7]; Quantity n [μmol] 0.29): 24 mm
- Diameter of zone of inhibition ([8]; Quantity n [mol] 0.029): r
- Diameter of zone of inhibition ([8]; Quantity n [mol] 0.14): r
- Diameter of zone of inhibition ([8]; Quantity n [mol] 0.29): r
- Diameter of zone of inhibition ([9]; Quantity n 0.029): r
- Diameter of zone of inhibition ([9]; Quantity n 0.14): r
- Diameter of zone of inhibition ([9]; Quantity n 0.29): 12 mm
- Diameter of zone of inhibition ([10]; Quantity n 0.029): r
- Diameter of zone of inhibition ([10]; Quantity n 0.14): 10 mm
- Diameter of zone of inhibition ([10]; Quantity n 0.29): 18 mm
- Diameter of zone of inhibition ([11]; Quantity n [mol] 0.029): r
- Diameter of zone of inhibition ([11]; Quantity n [mol] 0.14): r
- Diameter of zone of inhibition ([11]; Quantity n [mol] 0.29): r
- Diameter of zone of inhibition ([12]; Quantity n 0.029): r
- Diameter of zone of inhibition ([12]; Quantity n 0.14): r
- Diameter of zone of inhibition ([12]; Quantity n 0.29): r
- Diameter of zone of inhibition ([13]; Quantity n 0.029): r
- Diameter of zone of inhibition ([13]; Quantity n 0.14): 10 mm
- Diameter of zone of inhibition ([13]; Quantity n 0.29): 14 mm
- Diameter of zone of inhibition ([14]; Quantity n [mol] 0.029): 16 mm
- Diameter of zone of inhibition ([14]; Quantity n [mol] 0.14): 26 mm
- Diameter of zone of inhibition ([14]; Quantity n [mol] 0.29): 30 mm
- Diameter of zone of inhibition ([15]; Quantity n 0.029): 20 mm
- Diameter of zone of inhibition ([15]; Quantity n 0.14): 28 mm
- Diameter of zone of inhibition ([15]; Quantity n 0.29): 32 mm
- Diameter of zone of inhibition ([16]; Quantity n 0.029): r
- Diameter of zone of inhibition ([16]; Quantity n 0.14): 14 mm
- Diameter of zone of inhibition ([16]; Quantity n 0.29): 18 mm
- Diameter of zone of inhibition ([17]; Quantity n 0.029): r
- Diameter of zone of inhibition ([17]; Quantity n 0.14): 18 mm
- Diameter of zone of inhibition ([17]; Quantity n 0.29): 22 mm
- Diameter of zone of inhibition ([18]; Quantity n 0.029): r
- Diameter of zone of inhibition ([18]; Quantity n 0.14): 8 mm
- Diameter of zone of inhibition ([18]; Quantity n 0.29): 14 mm
- Diameter of zone of inhibition ([19]; Quantity n [mol] 0.029): r
- Diameter of zone of inhibition ([19]; Quantity n [mol] 0.14): 14 mm
- Diameter of zone of inhibition ([19]; Quantity n [mol] 0.29): 18 mm
- Diameter of zone of inhibition ([20]; Quantity n 0.029): 14 mm
- Diameter of zone of inhibition ([20]; Quantity n 0.14): 24 mm
- Diameter of zone of inhibition ([20]; Quantity n 0.29): 28 mm
